Test results taken from US7462605B2, “Phosphoramidate compounds and methods of use” (Celmed Oncology (USA), Inc., priority 2002, dated 2008).

Legend:
Format in all cases: cell-based, human
MCF7TDX cells = assay: 384-well interaction screening assay (alamarBlue) with NB1011, MCF7TDX; conditions: drug combined with NB1011, MCF7TDX, 384-well alamarBlue, 5-day
Experimental: Cell lines: Normal human colon epithelial cells (CCD18co) and skin fibroblasts (Det55 1) were purchased from ATCC (Rockville,Md.). MCF7TDX, human breast carcinoma cells resistant to 2 μM Tomudex were obtained from Dr. Patrick Johnston, Queens University, Belfast. […] The MCF7TDX and the H630R10 cell lines have been previously described in Drake, J. C. et al. (1996) and Copur, S. et al. (1995) respectively.
Culture Conditions: All cells were cultured under standard conditions of 37° C., 95% humidified air, 5% CO2 in RPMI 1640 culture medium containing 10% fetal calf serum (Life Technologies) and penicillin/streptomycin/fungizone. […] The medium was renewed or the cells were passaged about every three days to maintain optimal growth conditions. […]
Cytotoxicity Studies: 384-well interaction screening assay. […] Following a 5-day incubation, the redox indicator dye, alamarBlue (AccuMed International, Westlake, Ohio) was added to each well at a 10% v/v ratio, and fluorescence was monitored at 535 excitation, 595 emission. Cytotoxic effect levels and drug interactions were assessed by the combination index method (Chou, T. C. and Talalay, P. (1984) and Bible, K. C. et al. (1997)), described briefly below. […] Sigmoid curves were fit according to the Hill inhibitory Emax model, and IC50 calculated as the average of three or more separate determinations. […]

TSH/HT1080 cells = assay: alamarBlue cytotoxicity, HT1080 expressing high GFP-TS; conditions: second line printed TSL/HT1080, TS Level 702%
Experimental: (§1) Cell lines and transfection. HT1080 cells were grown in PRM11640 medium supplemented with 10% fetal calf serum, and transfected with GFP-TS expression vector. 48 hours after, transfection cells were tripsinized and replated in culture medium containing 750 μg/ml G418. After selection with G418 for two weeks, surviving cells were sorted based upon fluorescence expression. One clone with higher fluorescence expression (named as TSH/HT1080) and one clone with lower fluorescence expression (named as TSL/HT1080) were selected and expanded into cells lines. The stable HT1080 cells transfected with pEGFP-C3 were used as control.
(§2) Construction of GFP-TS expression vector. […] The cDNA was cloned into HindIII and KpnI sites of mammalian expression vector pEGFP-C3 (Clontech Laboratories. Inc., Palo Alto, Calif.), in-frame with GFP sequence. The cDNA insert was confirmed by DNA sequencing.
(§3) Growth Inhibition Studies. Cells growing exponentially were transferred to 384-well flat bottom tissue culture plates. All cell types were plated at a density of 500 cells per well in 25 μL of complete medium (RPMI 1640+10% fetal bovine serum+antibiotics/antimycotics). […] After 4 hours incubation at 37° C., fluorescence was monitored at 535 nm excitation and 595 nm emission.
(§4) Concentration vs. relative fluorescence units (RFU) were plotted, and sigmoid curves were fit using the Hill equation.

C/HT1080 cells = assay: alamarBlue cytotoxicity, control-transfected HT1080; conditions: C/HT1080, TS Level 100%
Experimental: as §1, §2, §3, §4

[1] = tested on: CCD18co normal colon epithelial cells; assay: Thymidine rescue, alamarBlue cytotoxicity
From the text: An additional approach was taken to understanding whether NB1011 might interfere with cell growth primarily by inactivating TS. This approach is based upon thymidine rescue of TS-blocked cells. […] For this reason, they survive only by scavenger mechanisms. One of the important scavenger mechanisms is utilization of extracellular thymidine. Thymidine incorporated by target cells can be converted to dTMP, usually by thymidine kinase, and thus continue DNA synthesis. Other pathways for use of exogenous thymidine have also been described If an important mechanism for NB1011 activity is via inhibition of endogenous TS, then the cytotoxicity should be relieved when thymidine is added to the cell culture media. For this experiment, a number of tumor cell lines were screened for their sensitivity to Tomudex and 5FdUrd, and ability to be rescued from these agents via thymidine supplementation. […] Experiments were carried out as described by (Patterson, et al. (1998)) with or without 10 μM thymidine, except that the alamarBlue assay was employed to determine cytotoxicity.

TSL/HT1080 cells = assay: alamarBlue cytotoxicity, HT1080 expressing low GFP-TS; conditions: TSL/HT1080, TS Level 409%
Experimental: as §1, §2, §3, §4

| Structure (SMILES) | Combination Index ± s.e.m. (MCF7TDX cells) | IC50 (TSH/HT1080 cells) [nM] | IC50 (C/HT1080 cells) [nM] | IC50 ([1]; in the presence of 10 μM thymidine) [nM] | IC50 ([1]; without thymidine) [nM] | IC50 (TSL/HT1080 cells) [nM] |
| --- | --- | --- | --- | --- | --- | --- |
| N.N.[Cl][Pt][Cl] [Cisplatin] | 1.51 ± 0.35 | – | – | – | – | – |
| O=c1[nH]c(=O)n([C@H]2C[C@H](O)[C@@H](CO)O2)cc1F [FUDR] | – | 3100 | < 100 | > 5900 | < 10 | 2200 |
| CCc1c2c(nc3ccc(OC(=O)N4CCC(N5CCCCC5)CC4)cc13)-c1cc3c(c(=O)n1C2)COC(=O)[C@]3(O)CC [Irinotecan] | 1.36 ± 0.38 | – | – | – | – | – |
